Data taken from patent publication US9849141B2, “Use of spironolactone-based composition that exhibits an inhibitory action on T-lymphocyte activation which is useful for preventing and/or treating multiple sclerosis” (PONTIFICIA UNIVERSIDAD CATOLICA DE CHILE, priority 2010, dated 2017).

Tests used:
[1] = tested on: dendritic cells / CD4+ T-cells; conditions: cited from earlier work
[2] = tested on: experimental autoimmune encefalomyelitis (EAE); conditions: administration to EAE mice; for MR inhibitors also in mice that did not receive aldosterone; cited from earlier work
[3] = tested on: experimental autoimmune encefalomyelitis (EAE) induced with MOG 35-55 peptide; test: Effect of a spironolactone composition in EAE mice (clinical score); type: in vivo, C57BL/6 female mice; conditions: EAE induced C57BL/6 mice, pellets supplemented with daily dose of 1.8 mg per mouse, oral, vs control group on standard pellets (FIG. 1)
[4] = tested on: immune synapsis between T-lymphocytes and antigen-presenting cells; test: Immune synapsis between antigen-presenting cells and T-lymphocytes, Golgi polarization by confocal fluorescence microscopy; type: cell-based; conditions: 5 ug/ml in culture medium, co-culture 2 hrs (FIG. 4B)
From the text: FIG. 4: Photographs using confocal fluorescence microscopy, showing immunological synapsis between antigen-presenting dendritic cells and T-lymphocyte. T-lymphocytes were dyed with BODIPY FL C5-Ceramide, which is directed to the Golgi apparatus, while antigen-presenting cells were dyed with CMTMR-Orange and co-cultured without spironolactone (FIG. 4A) or in the presence of spironolactone (FIG. 4B) during 2 hrs, afterwards, the cells were observed under a confocal fluorescence microscope.
It has been determined that an efficient activation of T-lymphocytes requires an stable interaction between the antigen-presenting cell and the T-lymphocyte, which is known as “immune synapsis”. A stable immune synapsis is translated in a polarization of the Golgi apparatus, an organelle in charge of protein transport, of the T-lymphocyte towards the contacting site with the antigen-presenting cell. In this way, it is possible to observe an efficient immune synapsis checking if a polarization from Golgi apparatus towards the contacting site with the antigen-presenting cell exists or not. […] Afterwards, both cell groups were contacted and the interaction between cells using a confocal fluorescence microscope was observed. […]

[5] = tested on: systemic lupus erythematosus-like disease in FcγII receptor knockout mice; test: Effect of spironolactone in systemic lupus erythematosus mice; type: in vivo; conditions: pellets supplemented with 1.8 mg daily, oral, compared to regularly fed mice (FIG. 5)
[6] = tested on: purified CD8+ T-lymphocytes; test: T-lymphocyte activation by plate-bound anti-CD3ε independent of antigen-presenting cells, IL-2 ELISA; type: cell-based; conditions: 5 ug/ml, 24 hrs, plate activated with different concentrations of anti-CD3ε (FIG. 3)
Protocol: FIG. 3: Plots showing the effect of a composition comprising spironolactone or epleronone in the activation of T-lymphocytes independent from antigen-presenting dendritic cells. An ELISA plate was activated with different concentrations of anti-CD3ε overnight, and then purified CD8+ T-lymphocytes were added and treated for 24 hrs with spironolactone (-□-), eplerenone (-▾-) o not treated (control -▴-). When the time was completed the supernatant was extracted and the IL-2 levels were determined using ELISA.
The following experiment was made in order to determine if spironolactone acts directly on T-lymphocytes or the effect is on the function of antigen-presenting cells. An ELISA plate was activated with different concentrations of anti-CD3ε overnight, and then, purified CD8+T-lymphocytes were added and treated with either spironolactone or epleronone (5 ug/ml) during 24 hrs. After that period, the supernatant was withdrawn and IL-2 levels were determined using ELISA. This assay is based on that T-lymphocytes, beside expressing TCR, express a protein denominated CD3, which transduces the activating signal, generated by the interaction of TCR with the antigenic peptide bound to the MHC of the antigen-presenting cell, to the interior of the T-lymphocyte.

[7] = tested on: CD8+ or CD4+ T-lymphocytes co-cultured with antigen-presenting cells (dendritic cells); test: T-lymphocyte activation by ovalbumin-pulsed antigen-presenting cells, IL-2 ELISA; type: cell-based, transgenic mice; conditions: 5 ug/ml during co-culture, 24 hrs, antigen-presenting cells pulsed with 10 ug/ml ovalbumin (FIG. 2)
Protocol: FIG. 2. Plots showing the effect of a composition comprising spironolactone in the inhibition of activation of T-lymphocytes through antigen-presenting cells. Antigen-presenting cells (dendritic cells) were pulsed with ovalbumin, washed and co-cultured with CD8+ or CD4+T-lymphocytes obtained from transgenic mice whose TCR specifically recognizes an ovalbumin derived peptide charged on class I or II MHC respectively. At the same time, the culture was treated with spironolactone (-□-) eplerenone (-▾-) or not treated (control -▴-) and after 24 hours, the supernatant was withdrawn and the presence of interleukin-2 (IL-2) assayed using ELISA. *p<0.05 one-way ANOVA.
Antigen-presenting cells were pulsed with 10 ug/ml of ovalbumin (OVA) protein over 24 hrs, washed and then co-cultured with CD8+ or CD4+T-lymphocytes obtained from transgenic mice whose TCR recognizes specifically a ovalbumin derived peptide charged in MHC class I or II, respectively. […] After 24 hrs, the supernatant was withdrawn and IL-2 secretion, a cytokine secreted by activated T-lymphocytes, was assayed using ELISA assay. In this specific immunological test, it is expected the activation of said T-lymphocytes and, therefore, an increase in IL-2 secretion.

SMILES: C[C@]12CCC(=O)C=C1CC[C@@H]1[C@@H]2[C@@H](O)C[C@]2(C=O)[C@@H](C(=O)CO)CC[C@@H]12 [aldosterone]
- induction of T helper 17 (Th17) phenotype in CD4+ T-cells by stimulated dendritic cells ([1]; dendritic cells stimulated with aldosterone): induce the T helper 17 (Th17) phenotype in CD4+ T-cells
- effect on disease in EAE mice [2]: showed a deterioration in their disease

SMILES: CC(=O)S[C@@H]1CC2=CC(=O)CC[C@]2(C)[C@H]2CC[C@@]3(C)[C@@H](CC[C@@]34CCC(=O)O4)[C@H]12 [spironolactone]
- clinical score associated with the disease [3]: significantly reduces the clinical score
- immune synapsis (polarization of the Golgi apparatus of the T-lymphocyte towards the antigen-presenting cell) [4]: immune synapsis is not produced
- deposition of immune complexes in the kidney [5]: did not observe a decrease in the deposition of immune complexes in the kidney
- secretion of IL-2 (ELISA) [6]: same inhibiting effect on the secretion of IL-2
- activation of T-lymphocytes (IL-2 secretion, ELISA) [7]: inhibits the activation of T-lymphocytes
- suppression of activator effects of aldosterone in the function of dendritic cells [1]: could be suppressed
- effect on disease in EAE mice [2]: only spironolactone had protecting effects

SMILES: COC(=O)[C@@H]1CC2=CC(=O)CC[C@]2(C)[C@@]23O[C@@H]2C[C@@]2(C)[C@@H](CC[C@@]24CCC(=O)O4)[C@H]13 [epleronone]
- activation of T-lymphocytes (IL-2 secretion, ELISA) [7]: no such inhibiting effect on the activation of T-lymphocytes is observed
- suppression of activator effects of aldosterone in the function of dendritic cells [1]: could be suppressed
